The values that follow come from US4663456A, “2-(substituted piperazinylalkyl)β-carbolines useful in treatment of psychological disorders” (American Home Products Corporation, priority 1985, dated 1987).

The target in one test is T1, limbic D-2 (Rattus norvegicus, UniProt P61169).
T1 construct: from tissue; host or cells: homogenized limbic brain tissue
Briefly: limbic D-2 binding (3H-spiroperidol, homogenized limbic brain tissue). As to the method:
Binding in the presence of the test compound is expressed as a percent of specific binding (total binding less binding in the presence of 1 μM (+)butaclamol). An inhibition constant (Ki) is calculated for each test compound to catagorize its limbic D-2 binding potential. The larger the number, the less potential for dopamine receptor binding and attendant side effects from administration of the antipsychotic agent.

Test [1] relates to conditioned avoidance responding in trained male CD rats. Briefly: conditioned avoidance lever response test (block of avoidance responding, i.p.). The format is in vivo, male CD rats (Charles River). The conditions noted are these: Rattus norvegicus, ip, from dose-effect regression line, read-out: AB50 (50% block in avoidance responding). The text has this:
The antipsychotic properties of the compounds of this invention were established by standard pharmacologically accepted procedures involving conditioned avoidance studies in which trained male CD rats (Charles River), 400-450 gm body weight are exposed to a fifteen second warning tone (conditioned stimulus) continued for an additional fifteen seconds accompanied by electric shock. The rat can avoid the electric shock by depression of a response lever (lever-response). A response during the initial warning tone is considered an avoidance response. The avoidance response is determined and expressed as a percentage of total trials from an appropriate number of trials and a 50% block in avoidance responding (AB50) is obtained from a dose-effect regression line. All the data is based upon (mg/kg) dosing of the animals.

The term Ki denotes a measure of affinity in units of concentration, obtained from inhibition or displacement. Lower therefore signals higher affinity.

T1 sequence (P61169 whole entry): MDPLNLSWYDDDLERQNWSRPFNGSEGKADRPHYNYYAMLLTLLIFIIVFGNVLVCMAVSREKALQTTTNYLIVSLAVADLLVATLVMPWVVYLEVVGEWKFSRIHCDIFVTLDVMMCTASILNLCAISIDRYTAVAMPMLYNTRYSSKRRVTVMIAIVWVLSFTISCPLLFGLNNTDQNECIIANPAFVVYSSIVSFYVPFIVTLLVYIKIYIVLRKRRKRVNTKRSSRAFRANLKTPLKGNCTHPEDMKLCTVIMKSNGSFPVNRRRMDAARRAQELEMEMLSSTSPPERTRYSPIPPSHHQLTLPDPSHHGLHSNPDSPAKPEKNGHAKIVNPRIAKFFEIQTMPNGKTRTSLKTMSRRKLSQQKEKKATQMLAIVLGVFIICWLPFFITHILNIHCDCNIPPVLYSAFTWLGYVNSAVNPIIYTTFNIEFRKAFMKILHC

On limbic D-2 (bound), `C[C@@H]1CN(CCCN2CCc3c([nH]c4ccccc34)C2)C[C@@H](C)N1` (relative stereo) [Example 3, 2-[3-(trans-3,5-Dimethyl-1-piperazinyl)propyl]-2,3,4,9-tetrahydro-1H-pyrido[3,4-b]indole] registered an inhibition constant Ki of more than 5 µM. For the same molecule, the “percent, limbic D-2 binding” value on limbic D-2 (concentration not given) is reported as 38%.
Take `c1cnc(N2CCN(CCCN3CCc4c([nH]c5ccccc45)C3)CC2)nc1` [Example 1, 2,3,4,9-Tetrahydro-2-[3-[4-(2-pyrimidinyl)-1-piperazinyl]propyl]-1H-pyrido[3,4-b]indole]: the ED50 in test [1] was determined as 34.7 mg/kg.
